Laboratory results as given in US8153641B2, “Compounds and methods for kinase modulation, and indications therefor” (Plexxikon Inc., priority 2008, dated 2012).

Key:
Format in all cases: biochemical
C-Raf = C-Raf (Homo sapiens, UniProt P04049); assay: Kinase activity assay, C-Raf; settings: read-out: activity toward kinase C-Raf, IC50
B-Raf = B-Raf (Homo sapiens, UniProt P15056); assay: Kinase activity assay, B-Raf; settings: read-out: activity toward kinase B-Raf, IC50
Fms = Fms (Homo sapiens, UniProt P07333); assay: Kinase activity assay, Fms; settings: read-out: activity toward kinase Fms, IC50
Fms, sequence (P07333 20-972): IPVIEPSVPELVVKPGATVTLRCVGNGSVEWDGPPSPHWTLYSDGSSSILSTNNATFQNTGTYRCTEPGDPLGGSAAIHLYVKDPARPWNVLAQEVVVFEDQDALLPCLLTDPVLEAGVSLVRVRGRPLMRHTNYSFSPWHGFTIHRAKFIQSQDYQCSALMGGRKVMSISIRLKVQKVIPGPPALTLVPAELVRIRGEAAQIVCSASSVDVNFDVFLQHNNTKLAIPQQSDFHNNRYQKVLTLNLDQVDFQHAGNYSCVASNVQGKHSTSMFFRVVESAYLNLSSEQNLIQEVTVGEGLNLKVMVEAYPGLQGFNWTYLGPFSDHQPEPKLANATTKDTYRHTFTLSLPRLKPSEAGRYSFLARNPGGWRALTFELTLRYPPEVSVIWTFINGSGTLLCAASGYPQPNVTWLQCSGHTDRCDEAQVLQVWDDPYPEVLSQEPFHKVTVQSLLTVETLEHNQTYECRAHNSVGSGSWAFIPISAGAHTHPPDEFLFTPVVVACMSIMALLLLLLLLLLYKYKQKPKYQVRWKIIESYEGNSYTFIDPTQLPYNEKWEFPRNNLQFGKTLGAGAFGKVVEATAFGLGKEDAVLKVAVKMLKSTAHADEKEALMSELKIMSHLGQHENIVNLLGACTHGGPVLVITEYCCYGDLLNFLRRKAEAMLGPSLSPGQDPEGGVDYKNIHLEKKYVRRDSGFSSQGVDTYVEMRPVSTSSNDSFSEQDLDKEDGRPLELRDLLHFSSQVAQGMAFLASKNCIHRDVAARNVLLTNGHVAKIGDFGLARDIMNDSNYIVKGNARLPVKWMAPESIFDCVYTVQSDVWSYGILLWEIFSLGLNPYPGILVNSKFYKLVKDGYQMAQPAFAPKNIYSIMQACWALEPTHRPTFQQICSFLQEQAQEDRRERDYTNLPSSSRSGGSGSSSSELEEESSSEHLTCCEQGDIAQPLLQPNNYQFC

B-Raf V600E = B-Raf V600E (Homo sapiens, UniProt P15056, V600E); assay: Kinase activity assay, B-Raf V600E; settings: read-out: activity toward kinase B-Raf V600E, IC50
B-Raf V600E, sequence (P15056 whole entry V600E): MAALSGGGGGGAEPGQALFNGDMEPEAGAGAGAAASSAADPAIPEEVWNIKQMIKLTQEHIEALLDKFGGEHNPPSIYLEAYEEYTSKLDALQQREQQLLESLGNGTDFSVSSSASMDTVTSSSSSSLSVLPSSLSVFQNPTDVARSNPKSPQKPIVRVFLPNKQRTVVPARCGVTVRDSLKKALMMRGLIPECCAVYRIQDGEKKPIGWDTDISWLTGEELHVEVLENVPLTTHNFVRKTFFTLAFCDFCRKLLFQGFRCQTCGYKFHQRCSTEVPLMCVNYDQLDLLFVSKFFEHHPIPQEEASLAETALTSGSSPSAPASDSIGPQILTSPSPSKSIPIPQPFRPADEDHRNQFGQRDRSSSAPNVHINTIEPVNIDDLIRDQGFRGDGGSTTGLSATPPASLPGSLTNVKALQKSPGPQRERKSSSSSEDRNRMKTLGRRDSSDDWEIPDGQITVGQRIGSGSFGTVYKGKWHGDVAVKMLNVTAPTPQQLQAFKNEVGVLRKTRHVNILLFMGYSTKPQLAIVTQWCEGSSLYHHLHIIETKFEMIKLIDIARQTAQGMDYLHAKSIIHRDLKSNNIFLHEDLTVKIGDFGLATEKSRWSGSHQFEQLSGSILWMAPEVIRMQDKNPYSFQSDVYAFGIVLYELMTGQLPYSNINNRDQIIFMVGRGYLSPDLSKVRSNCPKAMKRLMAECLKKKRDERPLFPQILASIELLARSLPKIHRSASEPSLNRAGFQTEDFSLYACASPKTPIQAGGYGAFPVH

Measured: IC50

B-Raf, sequence (P15056 whole entry): as the sequence (P15056 whole entry V600E) above, with E600V counted along it
C-Raf, sequence (P04049 whole entry): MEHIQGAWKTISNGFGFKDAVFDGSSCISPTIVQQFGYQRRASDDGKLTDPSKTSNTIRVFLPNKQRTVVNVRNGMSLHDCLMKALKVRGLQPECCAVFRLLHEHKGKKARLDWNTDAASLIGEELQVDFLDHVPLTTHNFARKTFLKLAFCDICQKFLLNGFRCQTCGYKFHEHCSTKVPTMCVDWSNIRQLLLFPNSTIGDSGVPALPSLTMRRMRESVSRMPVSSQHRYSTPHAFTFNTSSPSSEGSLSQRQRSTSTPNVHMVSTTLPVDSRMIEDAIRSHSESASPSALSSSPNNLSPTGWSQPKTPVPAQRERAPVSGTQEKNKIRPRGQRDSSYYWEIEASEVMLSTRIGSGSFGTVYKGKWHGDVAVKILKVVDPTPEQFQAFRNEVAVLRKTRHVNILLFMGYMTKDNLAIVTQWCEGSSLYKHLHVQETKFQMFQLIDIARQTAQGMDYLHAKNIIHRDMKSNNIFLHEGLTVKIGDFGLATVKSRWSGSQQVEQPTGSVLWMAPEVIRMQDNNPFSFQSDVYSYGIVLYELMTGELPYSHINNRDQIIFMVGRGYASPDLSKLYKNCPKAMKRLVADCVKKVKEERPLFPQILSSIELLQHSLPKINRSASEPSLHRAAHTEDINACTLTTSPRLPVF

O=C(c1c(F)ccc(NS(=O)(=O)c2cccnc2)c1F)c1c[nH]c2ncncc12 [Compound P-0066, Pyridine-3-sulfonic acid [2,4-difluoro-3-(7H-pyrrolo[2,3-d]pyrimidine-5-carbonyl)-phenyl]-amide]
≤ 10 µM: all assays above
